Laboratory results published in patent US20250170065A1, “THERAPEUTIC COMPOUNDS, FORMULATIONS, AND USE THEREOF” (priority 2022, published 2025).

How the values were obtained:
[1] = in vivo
Protocol: Particle size reduction for TTI-101 by micronization and nano-milling provided poor bioavailability (e.g., 10-20 times lower bioavailability than a solution of TTI-101). Hot melt extrusion (HME) was used and the resulting dispersions were evaluated using DSC miscibility, DSC extrudability and rheology studies. Polymer systems tried include: Soluplus; Soluplus+Kolliphor RH40; Soluplus+Vitamin E TPGS; and PVPVA64+Kolliphor RH40.

Solubility of TTI-101 = format: physicochemical
Text: The compound of Formula (I) (also referred to as TTI-101) is highly insoluble (“brick dust”). […] Furthermore, the compound of Formula (I) has a crystalline structure with high crystal-lattice energy, contributing to rapid precipitation or crystallization of the compound from solution. Its low solubility and high crystallinity have contributed to various difficulties in preparing formulations that are suitable for administration in human subjects. Current formulations are liquid formulations delivered via capsules. For example, a formulation of the compound of formula (I) dissolved in 60:40 Labrasol®/PEG400 and encapsulated into a hard gelatin capsule (unit dose: 36 mg), while showing encouraging results in 3 dose cohorts, was prevented from advancing to a fourth patient cohort (25.6 mg/kg/day as 12.8 mg/kg twice daily (BID) doses) because of an unacceptably high pill burden. For example, a 70 kg subject in Cohort 4 would require […] per day split into BID doses. […]

For COc1ccc(S(=O)(=O)Nc2cc(-c3c(O)ccc4ccccc34)c(O)c3ccccc23)cc1 [TTI-101], which “bioavailability lower than a solution of TTI-101” value [1] is on record?
The value was 10-20 times.

And the “solubility in aqueous solutions” value (Solubility of TTI-101)?
Its value is “insoluble”.

And the “solubility in most solvents” value (Solubility of TTI-101)?
The value was “relatively low solubility”.
